Assay results from patent publication US11203591B2, “Substituted 6-azabenzimidazole compounds” (Gilead Sciences, Inc., priority 2018, dated 2021).

These molecules were tested against human HPK1 (MAP4K1) (Homo sapiens (Human), UniProt Q92918) (assay: HPK1 IC50 Assay (TR-FRET peptide phosphorylation)). Conditions: 0.15 nM HPK1, 10 μM ATP, 1 μM STK S1 peptide substrate; geometric mean.
Assay type: biochemical
Protocol: The enzymatic activity of human HPK1 (MAP4K1) was monitored in a biochemical assay in the presence or absence of compounds and using a synthetic peptide substrate. An increase in phosphorylation of the peptide by HPK1 was indicative of its kinase activity.
Recombinant HPK1 kinase domain produced via baculovirus infection of insect cells was obtained from Proteros (Proteros Biostructures #PR-0322) and was pre-activated in the presence of 2 mM ATP (Sigma-Aldrich, cat #GE27-2056-01) and 2 mM magnesium chloride for 16 hours at 4° C. The protein reaction mixture was then loaded to a desalting column (Thermo Fisher Scientific, Cat #89889) to remove excess ATP. HPK1 was eluted with buffer containing 20 mM Tris (2-Amino-2-(hydroxymethyl)propane-1,3-diol) pH 8.0, 150 mM NaCl, 2 mM dithiothreitol and 5% glycerol, and was frozen at −80° C. for later use. HPK1 dual phosphorylation was confirmed by mass spectrometry.
Ten nanoliters of test compounds dissolved in DMSO at various concentrations were dispensed into a 384-well ProxiPlate (PerkinElmer #6008289). Five microliters of a solution of recombinant HPK1 diluted in HPK1 kinase assay buffer (50 mM BES [N,N-Bis(2-hydroxyethyl)-2-aminoethanesulfonic acid], pH 7.0; 10 mM magnesium chloride; 0.01% Triton X-100; 1 mM dithiothreitol; 0.01% bovine serum albumin; 0.1 mM sodium orthovanadate) was added to the compound-containing plate and was incubated for 15 minutes at 25° C. Five microliters of a mixture of ATP (Sigma-Aldrich #A6559) and peptide substrate STK S1 (Cisbio #61ST1BLC) diluted in HPK1 kinase assay buffer was then added to start the reaction. Final concentrations were 0.15 nM for HPK1, 10 μM for ATP, and 1 μM for the STK S1 peptide substrate. The reaction mixture was incubated at 25° C. for 3 hours and was stopped with the addition of 10 μl of an EDTA (Ethylenediaminetetraacetic acid)-containing detection buffer (Cisbio #62SDBRDF) supplemented with Europium cryptate-labeled anti-phospho-serine/threonine antibodies (Cisbio #62ST1PEJ) and XL665-labeled streptavidin (Cisbio #610SAXLG). The mixture was incubated for 16 hours at room temperature and peptide phosphorylation was measured by time-resolved fluorescence energy transfer (665 nm/620 nm) on an Envision plate reader (PerkinElmer).
Data in Table 1 were normalized based on positive (staurosporine) and negative (DMSO) controls. Least squares curve fittings were performed using a four-parameter variable slope nonlinear regression model. IC50 is defined as the concentration of compound required to inhibit 50% of maximum phosphorylation. IC50 values from multiple experiments were averaged by geometric mean and the standard deviation was calculated.

Sequence of human HPK1 (MAP4K1) (Q92918 17-274): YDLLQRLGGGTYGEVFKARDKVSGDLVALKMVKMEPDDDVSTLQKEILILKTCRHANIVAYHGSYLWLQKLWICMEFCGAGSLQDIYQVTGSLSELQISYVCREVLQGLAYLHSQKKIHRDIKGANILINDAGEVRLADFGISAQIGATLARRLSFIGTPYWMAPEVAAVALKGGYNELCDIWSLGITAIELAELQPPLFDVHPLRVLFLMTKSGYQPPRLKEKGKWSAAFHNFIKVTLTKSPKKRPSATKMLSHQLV

IC50 [nM] | Compound
0.1 | Cc1c(C(=O)NCC(F)F)cc(Nc2nc(-c3cnc4c(c3)N([C@H]3C[C@@](C)(N5CCCC6(CC6)C5)C3)C(=O)C4(C)C)cc3ncn(C(C)C)c23)c(F)c1F [Example 284, N-(2,2-difluoroethyl)-5-((6-(3,3-dimethyl-1-((1s,3s)-3-methyl-3-(5-azaspiro[2.5]octan-5-yl)cyclobutyl)-2-oxo-2,3-dihydro-1H-pyrrolo[3,2-b]pyridin-6-yl)-3-isopropyl-3H-imidazo[4,5-c]pyridin-4-yl)amino)-3,4-difluoro-2-methylbenzamide]
0.07 | CC(C)n1cnc2cc(-c3ccc4c(c3)N([C@H]3C[C@@](C)(N5CCCCC5)C3)C(=O)C4(C)C)nc(Nc3cc(C(=O)NCC(F)F)c(Cl)cc3F)c21 [Example 289, 2-chloro-N-(2,2-difluoroethyl)-5-((6-(3,3-dimethyl-1-((1s,3s)-3-methyl-3-(piperidin-1-yl)cyclobutyl)-2-oxoindolin-6-yl)-3-isopropyl-3H-imidazo[4,5-c]pyridin-4-yl)amino)-4-fluorobenzamide]

Same assay, conditions: recombinant HPK1 kinase domain 0.15 nM, 10 μM ATP, 1 μM STK S1 peptide; geometric mean of multiple experiments

IC50 [nM] | Compound
0.08 | CNC(=O)c1cc(Nc2nc(-c3ccc4c(c3)N([C@H]3C[C@@H](N5CCCCC5)C3)C(=O)C4(C)C)cc3ncn(C(C)C)c23)ccc1C [Example 1, 5-((6-(3,3-dimethyl-2-oxo-1-((1s,3s)-3-(piperidin-1-yl)cyclobutyl)indolin-6-yl)-3-isopropyl-3H-imidazo[4,5-c]pyridin-4-yl)amino)-N,2-dimethylbenzamide]
0.6 | CNC(=O)c1cc(Oc2nc(-c3ccc4c(c3)N([C@H]3C[C@@H](N5CCCCC5)C3)C(=O)C4(C)C)cc3ncn(C4CC4)c23)ccc1C [Example 34]
0.1 | Cc1ccc(Nc2nc(-c3ccc4c(c3)N([C@H]3C[C@@H](N5CCCCC5)C3)C(=O)C4(C)C)cc3ncn(C(C)C)c23)cc1C(=O)NC1CC1 [Example 26]
0.05 | Cc1ccc(Nc2nc(-c3ccc4c(c3)N([C@H]3C[C@@H](N5CCCCC5)C3)C(=O)C4(C)C)cc3ncn(C(C)C)c23)cc1C(=O)NCC(F)F [Example 20]
0.3 | CNC(=O)c1cc(Nc2nc(-c3ccc4c(c3)N([C@H]3C[C@@H](NC5CC(F)(F)C5)C3)C(=O)C4(C)C)cc3ncn(C(C)C)c23)ccc1C [Example 81]
0.06 | CC(=O)N1CCC2(CC1)C(=O)N([C@H]1C[C@@H](N3CCCCC3)C1)c1cc(-c3cc4ncn(C(C)C)c4c(Nc4ccc(C)c(C(=O)NC5CC5)c4)n3)ccc12 [Example 94]
0.09 | Cc1ccc(Nc2nc(-c3ccc4c(c3)N([C@H]3C[C@@H](N5CCCCC5)C3)C(=O)C4(C)C)cc3ncn(C(C)C)c23)cc1C(=O)NC1(CF)CC1 [Example 174, 5-((6-(3,3-dimethyl-2-oxo-1-((1s,3s)-3-(piperidin-1-yl)cyclobutyl)indolin-6-yl)-3-isopropyl-3H-imidazo[4,5-c]pyridin-4-yl)amino)-N-(1-(fluoromethyl)cyclopropyl)-2-methylbenzamide]
0.07 | CNC(=O)c1cc(Nc2nc(-c3ccc4c(c3)N([C@H]3C[C@@H](N5CCC[C@@H](F)C5)C3)C(=O)C4(C)C)cc3ncn(C(C)C)c23)ccc1C [Example 106]
0.2 | CNC(=O)c1cc(Nc2nc(-c3ccc4c(c3)N([C@H]3C[C@@H](N5CC[C@H](F)C5)C3)C(=O)C4(C)C)cc3ncn(C(C)C)c23)ccc1C [Example 5]
0.3 | CNC(=O)c1cc(Nc2nc(-c3cnc4c(c3)N([C@H]3C[C@@H](N5CCCCC5)C3)C(=O)C4(C)C)cc3ncn(C(C)C)c23)c(F)cc1C [Example 111]
0.2 | COCCNC(=O)c1cc(Nc2nc(-c3ccc4c(c3)N([C@H]3C[C@@H](N5CCCCC5)C3)C(=O)C4(C)C)cc3ncn(C(C)C)c23)c(F)cc1C [Example 116]
0.09 | CCn1cnc2cc(-c3ccc4c(c3)N([C@H]3C[C@@H](N5CCCCC5)C3)C(=O)C4(C)C)nc(Nc3ccc(C)c(C(=O)NC)c3)c21 [Example 102]
0.1 | CNC(=O)c1cc(Nc2nc(-c3ccc4c(c3)N([C@H]3C[C@@H](N5CCC(C)(C)C5)C3)C(=O)C43CCN(C(C)=O)CC3)cc3ncn(C4CC4)c23)ccc1C [Example 159]
0.08 | Cc1ccc(Nc2nc(-c3ccc4c(c3)N([C@H]3C[C@@H](N5CCCCC5)C3)C(=O)C4(C)C)cc3ncn(C(C)C)c23)cc1C(=O)NC(CF)CF [Example 31]
0.2 | CNC(=O)c1cc(Nc2nc(-c3ccc4c(c3)N([C@H]3C[C@@H](N5CCCCC5)C3)C(=O)C43CCN(C(=O)C4(O)CC4)CC3)cc3ncn(C4CC4)c23)ccc1C [Example 84]

Further lines, the molecule ahead of its results:

Compound | IC50 [nM]
Cc1cc(F)c(Nc2nc(-c3cnc4c(c3)N([C@H]3C[C@@H](N5CCCCC5)C3)C(=O)C4(C)C)cc3ncn(C(C)C)c23)cc1C(=O)NC1(C(F)F)CC1 [Example 67] | 0.3
CCNC(=O)c1cc(Nc2nc(-c3ccc4c(c3)N([C@H]3C[C@@H](N5CCCCC5)C3)C(=O)C43CCN(C(=O)CC)CC3)cc3ncn(C(C)C)c23)c(F)cc1C [Example 60] | 0.2
CNC(=O)c1cc(Nc2nc(-c3ccc4c(c3)N([C@H]3C[C@@H](N5CCCCC5)C3)C(=O)C43CCN(CC(F)F)CC3)cc3ncn(C(C)C)c23)c(F)cc1C [Example 61] | 0.2
CCNC(=O)c1ccc(F)c(Nc2nc(-c3ccc4c(c3)N([C@H]3C[C@@](C)(N5CCCCC5)C3)C(=O)C4(C)C)cc3ncn(C(C)C)c23)c1 [Example 240, 3-((6-(3,3-Dimethyl-1-((1s,3s)-3-methyl-3-(piperidin-1-yl)cyclobutyl)-2-oxoindolin-6-yl)-3-isopropyl-3H-imidazo[4,5-c]pyridin-4-yl)amino)-N-ethyl-4-fluorobenzamide] | 0.09
CC(C)n1cnc2cc(-c3cnc4c(c3)N([C@H]3C[C@@](C)(N5CCCCCC5)C3)C(=O)C4(C)C)nc(Nc3cc(C(=O)NCC(F)F)c(Cl)c(F)c3F)c21 [Example 248, 5-((6-(1-((1s,3s)-3-(azepan-1-yl)-3-methylcyclobutyl)-3,3-dimethyl-2-oxo-2,3-dihydro-1H-pyrrolo[3,2-b]pyridin-6-yl)-3-isopropyl-3H-imidazo[4,5-c]pyridin-4-yl)amino)-2-chloro-N-(2,2-difluoroethyl)-3,4-difluorobenzamide] | 0.05
CCNC(=O)c1cc(Nc2nc(-c3cnc4c(c3)N([C@H]3C[C@@](C)(N5CCC6CC6C5)C3)C(=O)C4(C)C)cc3ncn(C(C)C)c23)c(F)c(F)c1Cl (stereo partly shown) [Example 251, 5-((6-(1-((1s,3s)-3-(3-azabicyclo[4.1.0]heptan-3-yl)-3-methylcyclobutyl)-3,3-dimethyl-2-oxo-2,3-dihydro-1H-pyrrolo[3,2-b]pyridin-6-yl)-3-isopropyl-3H-imidazo[4,5-c]pyridin-4-yl)amino)-2-chloro-N-ethyl-3,4-difluorobenzamide] | 0.04
CC[C@H](C)n1cnc2cc(-c3ccc4c(c3)N([C@H]3C[C@@H](N5CC[C@@H](F)C5)C3)C(=O)C4(C)C)nc(Nc3cc(C(=O)NC)c(C)cc3F)c21 [Example 109] | 0.3
CNC(=O)c1cc(Nc2nc(-c3ccc4c(c3)N([C@H]3C[C@@H](N5C[C@H]6CC[C@@H]5C6)C3)C(=O)C43CCN(C(=O)C45CC(C4)C5)CC3)cc3ncn(C4CC4)c23)ccc1C [Example 43] | 0.08
Cc1c(C(=O)NC2(C(F)F)CC2)cc(Nc2nc(-c3cnc4c(c3)N([C@H]3C[C@@](C)(N5CCCCCC5)C3)C(=O)C4(C)C)cc3ncn(C(C)C)c23)c(F)c1F [Example 229, 5-((6-(1-((1s,3s)-3-(Azepan-1-yl)-3-methylcyclobutyl)-3,3-dimethyl-2-oxo-2,3-dihydro-1H-pyrrolo[3,2-b]pyridin-6-yl)-3-isopropyl-3H-imidazo[4,5-c]pyridin-4-yl)amino)-N-(1-(difluoromethyl)cyclopropyl)-3,4-difluoro-2-methylbenzamide] | 0.08
CCNC(=O)c1cc(Nc2nc(-c3ccc4c(c3)N([C@H]3C[C@@H](N5CCCCC5)C3)C(=O)C43CCN(C(=O)CC)CC3)cc3ncn(CC)c23)c(F)cc1C [Example 56] | 0.3
Cc1cc(F)c(Nc2nc(-c3ccc4c(c3)N([C@H]3C[C@@H](N5CCCCC5)C3)C(=O)C43CCOCC3)cc3ncn(C(C)C)c23)cc1C(=O)NC(C)C [Example 125] | 0.2
